Key:
[1] = in vitro; assay type: cell-based, human; settings: human
Procedure: (§1) FIGS. 3A-E are graphs providing data regarding resistance of HPV^+ SiHa cells to TRAIL-, cisplatin- and […] apoptosis, in the presence and absence of small molecules as disclosed herein. (FIG. 3A) HPV^+ SiHa cells are resistant to TRAIL-induced apoptosis as compared to the human osteosarcoma cell line U2OS. Cells (2×10^4 cells per well) were seeded into a 96-well plate, allowed to incubate overnight, and then treated with indicated concentration of TRAIL in the presence of cycloheximide (5 μg/ml). The viability of cells was measured after overnight incubation using the MTT assay; the viability of cells untreated with TRAIL was set at 100% for each group. (FIG. 3B) The indicated concentrations of three small molecules were added to SiHa cells, and an MTT assay was preformed after overnight incubation. The viability of cells untreated with small molecules was set as 100%. (FIG. 3C) The indicated concentrations of myricetin or spinacine were added 4 h prior to TRAIL (100 ng/ml) in the presence of cycloheximide (5 μg/ml) and incubated at 37° C. overnight. The viability of cells untreated with small molecules was set at 100%. (FIG. 3D and FIG. 3E) SiHa cells (2×10^4 cells per well) were seeded into a 96-well plate and allowed to incubate overnight. 100 μM of myricetin and 50 μM of spinacine were added 4 h prior to either (FIG. 3D) doxorubicin or (FIG. 3E) cisplatin. Cell viability was measured after overnight incubation using the MTT assay, and the viability of cells untreated with either myricetin or spinacine was set at 100%. Experiments were performed in triplicate, and error bars indicate the standard deviation.
(§2) The molecules were then tested to determine whether those that block E6/caspase 8 binding in vitro could also act in the context of a cell. SiHa cells are an HPV^+ cell line, derived from a cervical carcinoma, which serves as a commonly used model for HPV-associated malignancies. To determine whether HPV^+ SiHa cells are resistant to TRAIL-induced apoptosis, SiHa cells were treated with TRAIL and cell viability was assessed. TRAIL-sensitive, HPV^− U2OS cells served as a positive control. […] Myricetin and/or spinacine were tested to determine if they could sensitize these HPV^+ cells to TRAIL-induced apoptosis. […] Table 2 lists and compares the concentrations of the three tested compounds required to induce death in 50% of SiHa cells in the presence or absence of TRAIL.
The extracellular domain of human TRAIL was cloned into a pTriEx expression plasmid containing N-terminal Hisx6 tag. His-TRAIL was expressed in the E. coli BL-21 pLys strain and purified as previously described. Doxorubicin and cisplatin were purchased from Sigma. His-TRAIL, doxorubicin, and cisplatin were diluted in PBS to the desired concentration before using. To measure cell survival following treatment with TRAIL, cisplatin and doxorubicin, SiHa (2×10^4/well), C33A (1×10^4/well), and HNSCC cells (2×10^4/well) were seeded into 96-well plates and allowed to adhere overnight. Small molecules at the desired concentration were added and incubated at 37° C. for 4 h. As indicated, TRAIL, cisplatin or doxorubicin was then added. […] All experiments were repeated at least three times (three biological replicates, carried out on different days), with each experimental group measured in triplicate within each of these individual experiments. […]

[2] = tested on: SiHa cells; assay: MTT cell viability, SiHa cells, TRAIL-induced apoptosis; assay type: cell-based, human; settings: for increase in cell death in the presence than in the absence of TRAIL: from the EC50 values of Table 2; for concentration required to inhibit binding and to sensitize cells: cell sensitization experiments
Procedure: as §1
FIGS. 5A-B are graphs showing myricetin and spinacine (5) re-sensitized HPV^+, but not HPV^−, cells to treatment with TRAIL. SiHa (2×10^4 cells per well) and C33A cells (1×10^4 cells per well) were seeded into a 96-well plate and allowed to incubate overnight, then cells were pre-treated in the presence or absence of myricetin (100 μM) (FIG. 5A) or spinacine (50 μM) (FIG. 5B) for 4 h. The indicated concentration of TRAIL, along with cycloheximide (5 μg/ml) was added and cells were allowed to incubate overnight. Cell viability was measured by MTT assay, and the viability of cells untreated with TRAIL was set at 100%. Experiments were performed in triplicate, and error bars indicate the standard deviation.
as §2
The extracellular domain of human TRAIL was cloned into a pTriEx expression plasmid containing N-terminal Hisx6 tag. His-TRAIL was expressed in the E. coli BL-21 pLys strain and purified as previously described. Doxorubicin and cisplatin were purchased from Sigma. His-TRAIL, doxorubicin, and cisplatin were diluted in PBS to the desired concentration before using. To measure cell survival following treatment with TRAIL, cisplatin and doxorubicin, SiHa (2×10^4/well), C33A (1×10^4/well), and HNSCC cells (2×10^4/well) were seeded into 96-well plates and allowed to adhere overnight. Small molecules at the desired concentration were added and incubated at 37° C. for 4 h. As indicated, TRAIL, cisplatin or doxorubicin was then added. […]

Row | SMILES | EC50 [1] [µM] | sensitivity of SiHa cells to TRAIL after pre-treatment (in words) ([2]; 100 μM myricetin or 50 μM spinacine for 4 h, TRAIL up through 100 ng/ml) | increase in cell death in the presence than in the absence of TRAIL ([2]; SiHa cells) [fold] | concentration required to inhibit binding and to sensitize cells [2] [µM] | EC50 for TRAIL-induced apoptosis ([2]; SiHa cells, compound added 4 h prior to TRAIL 100 ng/ml + cycloheximide 5 μg/ml, overnight, MTT)
1 | O=c1c(O)c(-c2cc(O)c(O)c(O)c2)oc2cc(O)cc(O)c12 [Myricetin, reference compound] | 539 | sensitivity increased dramatically | 3.5 | 100 | –
2 | OCn1cnc2ccccc21 [Compound 3, 1H-benzimidazole-1-methanol] | 285 | – | – | – | No sensitization
3 | O=C(O)C1Cc2[nH]cnc2CN1 (stereo not drawn) [Compound 5, 4,5,6,7-Tetrahydro-1H-imidazo(4,5-c)pyridine-6-carboxylic acid] | 268 | – | 8.6 | 50 | –

— US20180200233A1, “COMPOSITIONS FOR PREVENTING CANCERS ASSOCIATED WITH HUMAN PAPILLOMA VIRUSES” (Loma Linda University, priority 2015, published 2018)
